Series [1] is described as follows: Cytotoxicity by the MTS method on uninfected cells. In kind it is cell-based. The conditions noted are these: mouse, uninfected RAW 264.7 cells, Table 2, at least three independent experiments. As for the experimental part:
Cytotoxicity: The cytotoxicity of the Compounds was evaluated by the MTS method, by exposing uninfected cells to the same concentrations of compounds for 3 days. The %cell viability was calculated as (ODtreated/ODCC) × 100, where ODCC is the OD of uninfected untreated cells and ODtreated are uninfected cells treated with compound. The CC50 was defined as the compound concentration that reduces the number of viable cells by 50%[34].
(In general: Formazan colour is commonly taken as a measure of viable cells.)

The target of a further series is HuNoV (GII.4) RdRp (Norovirus Hu/GII.4/Sydney/NSW0514/2012/AU, UniProt K4L8Z7). The series is described as follows: Quantitative fluorescent RdRp activity assay (PicoGreen, poly(C) template). In kind it is biochemical, human norovirus Sydney 2012. The conditions noted are these: 20 µM; for inhibition at 20 µM: read-out: inhibition of HuNoV RdRp activity at fixed concentration. The method, boiled down: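 Enzyme (400 ng) preincubated with compound 10 min at 30 °C, then reacted 15 min at 30 °C with 45 μM GTP, 10 ng/μL poly(C), 2.5 mM MnCl2, pH 7.5. Stopped with EDTA; dsRNA quantified by PicoGreen. Six concentrations (0.1–100 µM) gave IC50, or single 20 µM screen vs 0.5% DMSO.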

In the case of `O=C(NC(=S)Nc1ccc(N2CCN(C(=O)c3cccs3)CC2)cc1)c1sc2ccccc2c1Cl` [Compound 48, 3-Chloro-N-((4-(4-(thiophene-2-carbonyl)piperazin-1-yl)phenyl)carbamothioyl)benzo[b]thiophene-2-carboxamide, reference compound], the CC50 (in general, the concentration at which the toxic effect on the cells reaches its halfway point) at 3 days in series [1] was > 100 µM. Further, the inhibition at 20 µM at HuNoV (GII.4) RdRp is 20%.
The like results for `Cc1ccc(C(=O)NC(=S)Nc2ccc(N3CCN(C(=O)c4cccs4)CC3)cc2)cc1` [Compound 52, 4-Methyl-N-((4-(4-(thiophene-2-carbonyl)piperazin-1-yl)phenyl)carbamothioyl)benzamide] were, in that order, > 100 µM and ~15%.
Consider `O=C(NC(=S)Nc1ccc(N2CCN(C(=O)c3nccs3)CC2)cc1)c1sc2ccccc2c1Cl` [Compound 56, 3-Chloro-N-((4-(4-(thiazole-2-carbonyl)piperazin-1-yl)phenyl)carbamothioyl)benzo[b]thiophene-2-carboxamide], for which the CC50 at 3 days in series [1] was > 100 µM. For the same molecule, the “inhibition of HuNoV RdRp activity at fixed concentration” value on HuNoV (GII.4) RdRp is “does not affect enzymatic inhibition activity”.
